Results reported in US20250090510A1, “eIF4G1-eIF1 INHIBITORS AND USE THEREOF” (YEDA RESEARCH AND DEVELOPMENT CO. LTD., priority 2022, published 2025).

Biological target: T1, eIF4G1 (Homo sapiens, UniProt Q04637)
T1 construct: The pET-28-His-bdSumo-eIF4G1 (675-1129) was generated using eIF4G1 (675-1129) as insert and pET-28-14His-bdSumo as backbone; bdSUMO (N); made in house; host or cells: E. coli BL21
Test: Intrinsic fluorescence of His-eIF4G1
Format: binding
Conditions: 0-256 μM, 5 minutes, excitation 280 nm, emission 350 nm; read-out: IC50, loss of eIF4G1 intrinsic fluorescence
From the text: FIGS. 1A-G: Identification and initial characterization of eIF1-eIF4G1 inhibitors using a high-throughput drug screen (HTS). (1A) A flowchart describing the steps of the recombinant eIF1-eIF4G1 split-RL HTS. (1B) Selection of drugs that inhibit leaky scanning. HEK293T cells were transfected with a short 5′UTR bearing GFP reporter gene described on the top, treated with the indicated HTS hits, and then analyzed by western blot with GFP antibody. US and DS denote upstream and downstream AUG initiation sites, respectively. (1C) A graph showing the change in the ratio of the upstream and downstream AUG following treatment with the indicated drugs. (1D) The chemical structure of the eIF1-eIF4G1 inhibitors, i14G1-10 and i14G1-12. (1E) His-tagged eIF4G1 and His-tagged eIF1 were expressed in BL21 bacteria and purified using nickel NTA beads. Purified His-tagged eIF4G1 and His-tagged eIF1 were incubated with the indicated doses of either i14G1-10 (0-256 μM) or i14G1-12 (0-256 μM) for 5 minutes, followed by fluorescence measurement. […] IC50 was calculated using Graphpad prism 9. […]
Intrinsic fluorescence of His-eIF1 and His-eIF4G1. […] After 5 minutes, fluorescence (280/350) was measured on Cytation 5 multi-mode reader (Biotek). The fluorescence intensity values corresponding to respective concentration in both i14G1-10 and i14G1-12 treatments were plotted and IC50 was calculated using GraphPad Prism 9.0. […]

T1 sequence (Q04637 675-1129): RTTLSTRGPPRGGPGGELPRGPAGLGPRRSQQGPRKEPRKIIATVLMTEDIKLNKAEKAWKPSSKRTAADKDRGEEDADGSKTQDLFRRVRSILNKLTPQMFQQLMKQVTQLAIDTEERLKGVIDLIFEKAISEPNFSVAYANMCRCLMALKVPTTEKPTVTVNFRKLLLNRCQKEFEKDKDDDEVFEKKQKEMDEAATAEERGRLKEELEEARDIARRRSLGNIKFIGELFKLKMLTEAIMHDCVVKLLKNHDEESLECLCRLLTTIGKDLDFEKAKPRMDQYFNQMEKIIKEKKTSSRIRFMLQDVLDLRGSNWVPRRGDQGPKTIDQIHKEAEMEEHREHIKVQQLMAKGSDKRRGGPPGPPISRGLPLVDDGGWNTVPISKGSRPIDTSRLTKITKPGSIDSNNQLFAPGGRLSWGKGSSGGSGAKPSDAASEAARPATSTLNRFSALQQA

IC50: 58.4 µM
Compound: Cn1ccnc1S/C(=C/C=C(C#N)C#N)c1ccc(Cl)cc1 [i14G1-12]
